Data on 21 molecules can be found in article PMC8365602 (Journal of Medicinal Chemistry, 2021).

Like-named read-outs stand apart in the source and are kept apart here. A value given as a limit tells only on which side of the number the result lay.

Assay [1] concerns the target T1, 5-LOX (Homo sapiens, UniProt P09917).
T1 sequence (P09917 1-674): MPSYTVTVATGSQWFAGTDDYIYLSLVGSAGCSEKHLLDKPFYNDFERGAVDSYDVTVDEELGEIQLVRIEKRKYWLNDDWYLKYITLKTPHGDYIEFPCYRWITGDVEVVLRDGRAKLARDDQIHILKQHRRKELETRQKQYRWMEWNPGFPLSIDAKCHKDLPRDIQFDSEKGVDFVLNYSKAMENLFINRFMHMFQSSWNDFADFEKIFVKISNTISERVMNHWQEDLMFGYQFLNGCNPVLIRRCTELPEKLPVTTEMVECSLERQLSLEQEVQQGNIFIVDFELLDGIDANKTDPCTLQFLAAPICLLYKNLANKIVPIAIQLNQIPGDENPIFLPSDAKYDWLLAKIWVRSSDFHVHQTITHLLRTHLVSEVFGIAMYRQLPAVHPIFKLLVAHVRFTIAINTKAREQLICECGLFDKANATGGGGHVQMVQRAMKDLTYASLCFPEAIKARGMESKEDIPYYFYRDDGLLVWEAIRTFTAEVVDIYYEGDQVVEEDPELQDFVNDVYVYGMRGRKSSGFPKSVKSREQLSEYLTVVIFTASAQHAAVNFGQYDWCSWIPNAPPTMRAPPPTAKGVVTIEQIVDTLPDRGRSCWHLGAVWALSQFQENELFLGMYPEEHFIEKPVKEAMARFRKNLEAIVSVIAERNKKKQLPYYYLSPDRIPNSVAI
The experiment in a line: Cell-free 5-LOX activity (isolated human recombinant enzyme).
Protocol: Human recombinant 5-LOX was expressed in E. coli Bl21 (DE3) cells that were transformed with pT3–5LOX (wt 5-LOX), 5-LOX_3W (triple mutation of Trp102Ala/Trp13Ala/Trp75Ala), or 5-LOX_R (single mutant of the Arg101Asp plasmid) and purified on an ATP-agarose column (Econo-Pac, Bio-Rad, Hercules, CA) by affinity chromatography.[6],[75]
Purified 5-LOX (0.5 μg in PBS pH 7.4 containing 1 mM EDTA and 1 mM ATP) was preincubated with the vehicle (DMSO) or test compounds for 10 min and prewarmed at 37 °C.

Assay [2] has as its target T1, 5-LOX. Nature of the assay: 5-LOX product formation in activated PMNL.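 As to all read-outs here: freshly isolated human PMNL in PBS pH 7.4 plus glucose, preincubated 10 min at 37 °C with compound, 5-LOX products (all-trans LTB4 isomers, 5-HETE) quantified by RP-HPLC.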 The conditions noted are these: for remaining activity at 3 µM: PMNL.
Protocol: These volunteers regularly donated blood (every 8–12 weeks) and were physically inspected by a clinician.
Erythrocytes were removed by dextran sedimentation and hypotonic lysis. PMNL were obtained from the cell pellet and platelets from the supernatant.
Freshly isolated PMNL (5 × 10^6) suspended in PBS pH 7.4 with 1 mg/mL glucose or freshly withdrawn human whole blood were preincubated with the test compounds for 10 min (or as indicated) at 37 °C. […] The reaction was stopped with an equal volume of methanol.
In assay [3] the target is T1, 5-LOX. Further details: made in house; host or cells: E. coli Bl21 (DE3). Particulars: supplementary csv; # published in ref Pein et al.4; read-out: IC50 (5-LOX enzyme); cited from earlier work.
Assay [4] deals with T1, 5-LOX. The conditions noted are these: supplementary csv; # published in ref Pein et al.4; read-out: IC50 (5-LOX PMNL); cited from earlier work.
[5] abbreviates: read-out: 5-LOX enzyme residual activity at 1 µM (Table S1).
Setting [6] is: read-out: 5-LOX PMNL residual activity at 3 µM (Table S1).
Setting [7] is: read-out: 5-LOX enzyme IC50, isolated human 5-LOX, cell-free, mean ± SEM.
[8] abbreviates: read-out: 5-LOX enzyme residual activity at 1 μM.
Setting [9] is: read-out: 5-LOX PMNL residual activity at 3 μM.
[10] abbreviates: read-out: 5-LOX PMNL IC50, 5-LOX product formation in activated PMNL, mean ± SEM.

As for `Cc1c(C)c2c(c(C)c1O)CC[C@@](C)(CCC[C@H](C)CCC[C@H](C)CCCC(C)C)O2` [Compound 1a, α-tocopherol], the remaining activity at 1 µM on 5-LOX [1] (setting [5]) turned out to be 86.1 ± 8.3%. Besides, the remaining activity at 3 µM on 5-LOX [2] (setting [6]) came to 88.6 ± 10.5%. In addition, the concentration for half-maximal inhibition (IC50) (as a rule, the point on the concentration scale where inhibition reaches its midpoint) on 5-LOX [3] is more than 1000 nM; on 5-LOX [4], more than 3000 nM.
With `Cc1cc(O)c(C)c2c1O[C@](C)(CCC[C@H](C)CCC[C@H](C)CCCC(C)C)CC2` [Compound 1b], the remaining activity at 1 µM on 5-LOX [1] (setting [5]) was 32.8 ± 9%. The remaining activity at 3 µM at 5-LOX [2] (setting [6]) was found to be 79.6 ± 6.1%. Moreover, the concentration for half-maximal inhibition (IC50) at 5-LOX [3] is 750 ± 150 nM; on 5-LOX [4], more than 3000 nM.
`Cc1c(O)cc2c(c1C)O[C@](C)(CCC[C@H](C)CCC[C@H](C)CCCC(C)C)CC2` [Compound 1c]: the remaining activity at 1 µM on 5-LOX [1] (setting [5]) worked out at 47 ± 4.5%. For the same molecule, the remaining activity at 3 µM at 5-LOX [2] (setting [6]) was 78.5 ± 13.6%. In addition, the concentration for half-maximal inhibition (IC50) is 910 ± 150 nM on 5-LOX [3] and more than 3000 nM on 5-LOX [4].
For `Cc1cc(O)cc2c1O[C@](C)(CCC[C@H](C)CCC[C@H](C)CCCC(C)C)CC2` [Compound 1d, δ-tocopherol], the 50% inhibitory concentration (IC50) on 5-LOX [1] is 600 ± 250 nM; on 5-LOX [4], more than 3000 nM. Also, the remaining activity at 1 µM on 5-LOX [1] (setting [5]) worked out at 43.3 ± 7.2%. Moreover, at 5-LOX [2] (setting [6]), the remaining activity at 3 µM was determined as 107 ± 3.2%.
For the molecule `CC(C)=CCC/C(C)=C/CC/C(C)=C/CC[C@]1(C)CCc2c(C)c(O)c(C)c(C)c2O1` [Compound 6a], the remaining activity at 1 µM at 5-LOX [1] (setting [5]) is 16.9 ± 6.6%. Moreover, the remaining activity at 3 µM on 5-LOX [2] (setting [6]) worked out at 75.5 ± 4.5%. Further, the IC50 at 5-LOX [4] was more than 3000 nM.
On to `CC(C)=CCC/C(C)=C/CC/C(C)=C/CC[C@]1(C)CCc2c(C)c(O)cc(C)c2O1` [Compound 6b], for which the remaining activity at 1 µM on 5-LOX [1] (setting [5]) was 6.4 ± 3.2%. Moreover, on 5-LOX [2] (setting [6]), the remaining activity at 3 µM worked out at 41.4 ± 8%. In addition, the IC50 is 190 ± 30 nM on 5-LOX [3] and 2110 ± 360 nM on 5-LOX [4].
Regarding `CC(C)=CCC/C(C)=C/CC/C(C)=C/CC[C@]1(C)CCc2cc(O)c(C)c(C)c2O1` [Compound 6c], the remaining activity at 1 µM at 5-LOX [1] (setting [5]) was 6.4 ± 3.2%. Moreover, on 5-LOX [2] (setting [6]), the remaining activity at 3 µM came out at 73.5 ± 1.2%. For the same molecule, the concentration for half-maximal inhibition (IC50) is 200 ± 60 nM on 5-LOX [3] and more than 3000 nM at 5-LOX [4].
Turning to `CC(C)=CCC/C(C)=C/CC/C(C)=C/CC[C@]1(C)CCc2cc(O)cc(C)c2O1` [Compound 6d, δ-tocotrienol], the remaining activity at 1 µM on 5-LOX [1] (setting [5]) was found to be 6.7 ± 3.1%. Further, on 5-LOX [2] (setting [6]), the remaining activity at 3 µM was found to be 74.9 ± 8%. Moreover, the values for the IC50 at 5-LOX [3] and on 5-LOX [4] were 170 ± 100 nM and more than 3000 nM, respectively.
`Cc1c(C)c2c(c(C)c1O)CC[C@@](C)(CCCC(C)CCCC(C)CCCC(C)CO)O2` (stereo partly drawn) [Compound 9a, α-T-13′-CH2OH]: the remaining activity at 1 µM at 5-LOX [1] (setting [5]) was 1.5 ± 0.4%. Further, the remaining activity at 3 µM on 5-LOX [2] (setting [6]) is 21.6 ± 2.5%. Moreover, the values for the concentration for half-maximal inhibition (IC50) at 5-LOX [3] and at 5-LOX [4] were 350 ± 40 nM and 190 ± 50 nM, respectively.
With `Cc1cc(O)cc2c1O[C@](C)(CCCC(C)CCCC(C)CCCC(C)CO)CC2` (some centres unmarked) [Compound 9b], the remaining activity at 1 µM on 5-LOX [1] (setting [5]) was determined as 2.1 ± 0.3%. Besides, at 5-LOX [2] (setting [6]), the remaining activity at 3 µM was found to be 22.6 ± 2.4%. Besides, the concentration for half-maximal inhibition (IC50) at 5-LOX [3] was 120 ± 40 nM; at 5-LOX [4], 540 ± 180 nM.
Take `C/C(=C\CC/C(C)=C/CC/C(C)=C/CC[C@]1(C)CCc2c(C)c(O)c(C)c(C)c2O1)CO` [Compound 10a]: the remaining activity at 1 µM on 5-LOX [1] (setting [5]) came out at 0.2 ± 0.1%. Besides, the remaining activity at 3 µM at 5-LOX [2] (setting [6]) came out at 13.2 ± 2%. In addition, the IC50 is 110 ± 10 nM on 5-LOX [3] and 270 ± 100 nM on 5-LOX [4].
As to `C/C(=C\CC/C(C)=C/CC/C(C)=C/CC[C@]1(C)CCc2c(C)c(O)cc(C)c2O1)CO` [Compound 10b], at 5-LOX [1] (setting [5]), the remaining activity at 1 µM turned out to be 0.2 ± 0.1%. In addition, the remaining activity at 3 µM at 5-LOX [2] (setting [6]) was 7.7 ± 1.3%. Moreover, the half-inhibitory concentration (IC50) was 90 ± 30 nM on 5-LOX [3] and 380 ± 90 nM on 5-LOX [4].
With `C/C(=C\CC/C(C)=C/CC/C(C)=C/CC[C@]1(C)CCc2cc(O)cc(C)c2O1)CO` [Compound 10c], the remaining activity at 1 µM on 5-LOX [1] (setting [5]) was found to be 2.7 ± 1.5%. Further, the remaining activity at 3 µM at 5-LOX [2] (setting [6]) worked out at 8.8 ± 1.9%. For the same molecule, the figures for the concentration for half-maximal inhibition (IC50) on 5-LOX [3] and on 5-LOX [4] were 150 ± 50 nM and 1260 ± 330 nM, respectively.
On to `C/C(=C/CC/C(C)=C/CC/C(C)=C/CC[C@]1(C)CCc2cc(O)c(C)c(C)c2O1)CO` [Compound 10d], for which, on 5-LOX [1] (setting [5]), the remaining activity at 1 µM stood at 0%. In addition, at 5-LOX [2] (setting [6]), the remaining activity at 3 µM was 1.1 ± 1.1%. The concentration for half-maximal inhibition (IC50) on 5-LOX [3] was 120 ± 30 nM; on 5-LOX [4] it was 140 ± 20 nM.
In the case of `C/C(=C/CC/C(C)=C/CC/C(C)=C/CC[C@]1(C)CCc2cc(O)cc(C)c2O1)CO` [Compound 10e, δ-(Z)-deoxyamplexichromanol], the remaining activity at 1 µM at 5-LOX [1] (setting [5]) is 0.3 ± 0.2%. Besides, the remaining activity at 3 µM at 5-LOX [2] (setting [6]) was determined as 2 ± 0.2%. In addition, the results for the concentration for half-maximal inhibition (IC50) at 5-LOX [3] and at 5-LOX [4] were 140 ± 30 nM and 220 ± 40 nM, respectively.
Regarding `CC(=O)c1cc2c(C)c3c(c(C)c2oc1=O)CC[C@@](C)(CC/C=C(\C)CC/C=C(\C)CCC=C(CO)CO)O3` [Compound 41, (R)-3-Acetyl-7-((3E,7E)-13-hydroxy-12-(hydroxymethyl)-4,8-dimethyltrideca-3,7,11-trien-1-yl)-5,7,10-trimethyl-8,9-dihydropyrano[2,3-g]chromen-2(7H)-one], the half-maximal inhibitory concentration (IC50) at 5-LOX [1] (setting [7]) came to 630 ± 130 nM; on 5-LOX [2] (setting [10]), 1250 ± 200 nM. Moreover, on 5-LOX [1] (setting [8]), the remaining activity at 1 µM was found to be 35.1 ± 5.7%. Also, the remaining activity at 3 µM on 5-LOX [2] (setting [9]) worked out at 12.4 ± 0.7%.
For `CC(=O)c1cc2c3c(c(C)cc2oc1=O)O[C@](C)(CC/C=C(\C)CC/C=C(\C)CCC=C(CO)CO)CC3` [Compound 42, (R)-2-Acetyl-8-((3E,7E)-13-hydroxy-12-(hydroxymethyl)-4,8-dimethyltrideca-3,7,11-trien-1-yl)-6,8-dimethyl-9,10-dihydropyrano[3,2-f]chromen-3(8H)-one] the same measures were 210 ± 20 nM, 1440 ± 420 nM, 23.3 ± 2.3% and 15.3 ± 6.9%.
Consider `CCOC(=O)c1cc2c3c(c(C)cc2oc1=O)O[C@](C)(CC/C=C(\C)CC/C=C(\C)CCC=C(CO)CO)CC3` [Compound 43, Ethyl-(R)-8-((3E,7E)-13-hydroxy-12-(hydroxymethyl)-4,8-dimethyltrideca-3,7,11-trien-1-yl)-6,8-dimethyl-3-oxo-3,8,9,10-tetrahydropyrano[3,2-f]chromene-2-carboxylate], for which the figures for the IC50 at 5-LOX [1] (setting [7]) and on 5-LOX [2] (setting [10]) were 470 ± 140 nM and 1580 ± 210 nM, respectively. In addition, the remaining activity at 1 µM on 5-LOX [1] (setting [8]) turned out to be 29.3 ± 2.6%. On 5-LOX [2] (setting [9]), the remaining activity at 3 µM was found to be 8.1 ± 1%.
For `COc1ccc(C2OCC(=CCC/C(C)=C/CC/C(C)=C/CC[C@]3(C)CCc4c(C)c(O)c(CO)c(C)c4O3)CO2)cc1OC` (stereo partly drawn) [Compound 46, (2R)-2-((3E,7E)-11-(2-(3,4-Dimethoxyphenyl)-1,3-dioxan-5-ylidene)-4,8-dimethylundeca-3,7-dien-1-yl)-7-(hydroxymethyl)-2,5,8-trimethylchroman-6-ol], the figures for the IC50 on 5-LOX [1] and at 5-LOX [2] were 90 nM and 390 ± 180 nM, respectively. The remaining activity at 1 µM on 5-LOX [1] (setting [8]) was determined as 0.7 ± 0.1%. Besides, the remaining activity at 3 µM on 5-LOX [2] (setting [9]) was found to be 22.2 ± 8.8%.
With `COc1ccc(C2OCC(=CCC/C(C)=C/CC/C(C)=C/CC[C@]3(C)CCc4c(C)c(O)c(C=O)c(C)c4O3)CO2)cc1OC` (some centres unmarked) [Compound 47], the half-inhibitory concentration (IC50) on 5-LOX [1] (setting [7]) is more than 1000 nM; on 5-LOX [2] (setting [10]), more than 3000 nM. On 5-LOX [1] (setting [8]), the remaining activity at 1 µM amounted to 58.7 ± 4.6%. Also, the remaining activity at 3 µM on 5-LOX [2] (setting [9]) was 84 ± 8.5%.
Regarding `C/C(=C\CC/C(C)=C/CC[C@]1(C)CCc2c(CO)c(O)cc(C)c2O1)CCC=C1COC(c2ccc([N+](=O)[O-])cc2)OC1` (stereo partly drawn) [Compound 48, (2R)-2-((3E,7E)-4,8-Dimethyl-11-(2-(4-nitrophenyl)-1,3-dioxan-5-ylidene)undeca-3,7-dien-1-yl)-5-(hydroxymethyl)-2,8-dimethylchroman-6-ol], the IC50 at 5-LOX [1] was 210 ± 130 nM; against 5-LOX [2] it was 490 ± 130 nM. For the same molecule, the remaining activity at 1 µM at 5-LOX [1] (setting [8]) was 14 ± 3.2%. Besides, at 5-LOX [2] (setting [9]), the remaining activity at 3 µM came out at 15.4 ± 1.9%.
